target: ATX (human His-tagged) (Homo sapiens (Human), UniProt Q13822); assay: Human ATX enzyme inhibition assay (fluorescence quenching, MR121 substrate); type: biochemical; details: inhibitory activity against ATX; 30 nM ATX, 1 μM MR121 substrate, 30° C.
Procedure: Human ATX Enzyme Inhibition Assay
ATX inhibition was measured by a fluorescence quenching assay using a specifically labeled substrate analogue (MR121 substrate). To obtain this MR121 substrate, BOC and TBS protected 6-amino-hexanoic acid (R)-3-({2-[3-(2-{2-[2-(2-amino-ethoxy)-ethoxy]-ethoxy}-ethoxy)-propionylamino]-ethoxy}-hydroxy-phosphoryloxy)-2-hydroxy-propyl ester (Ferguson et al., Org Lett 2006, 8 (10), 2023) was labeled with MR121 fluorophore (CAS 185308-24-1, 1-(3-carboxypropyl)-11-ethyl-1,2,3,4,8,9,10,11-octahydro-dipyrido[3,2-b:2′,3′-i]phenoxazin-13-ium) on the free amine of the ethanolamine side and then, after deprotection, subsequently with tryptophan on the side of the aminohexanoic acid.
Assay working solutions were made as follows:
Assay buffer (50 mM Tris-HCl, 140 mM NaCl, 5 mM KCl, 1 mM CaCl2, 1 mM MgCl2, 0.01% Triton-X-100, pH 8.0;
ATX solution: ATX (human His-tagged) stock solution (1.08 mg/mL in 20 mM bicine, pH 8.5, 0.15 M NaCl, 10% glycerol, 0.3% CHAPS, 0.02% NaN3), diluted to 1.4-2.5× final concentration in assay buffer;
MR121 substrate solution: MR121 substrate stock solution (800 μM MR121 substrate in DMSO), diluted to 2-5× final concentration in assay buffer.
Test compounds (10 mM stock in DMSO, 8 μL) were obtained in 384 well sample plates (Corning Costar #3655) and diluted with 8 μL DMSO. Row-wise serial dilutions were made by transferring 8 μL cpd solution to the next row up to […]. The compound and control solutions were mixed five times and 2 μL were transferred to 384 well assay plates (Corning Costar #3702). Then, 15 μL of 41.7 nM ATX solution was added (30 nM final concentration), mixed five times and then incubated for 15 minutes at 30° C. 10 μL of MR121 substrate solution was added (1 μM final concentration), mixed 30 times and then incubated for 15 minutes at 30° C. Fluorescence was then measured every 2 minutes for 1 hour (Perkin Elmer plate: vision multimode reader); light intensity: 2.5%; exp. time: 1.4 sec, Filter: Fluo_630/690 nm) and IC50 values were calculated from these readouts.

Point of comparison: `O=C(OCc1ccc(OC(F)(F)F)c(Cl)c1)N1CCc2nc(C(=O)N3CCc4[nH]nnc4C3)nn2CC1` [Example 41, [3-chloro-4-(trifluoromethoxy)phenyl]methyl 2-(1,4,6,7-tetrahydrotriazolo[4,5-c]pyridine-5-carbonyl)-5,6,8,9-tetrahydro-[1,2,4]triazolo[1,5-d][1,4]diazepine-7-carboxylate], IC50 6 nM. Against it:
- CC(C)(C)c1cc(C#N)ccc1OCC(=O)N1CCc2cc(C(=O)N3CCc4[nH]nnc4C3)nn2CC1 [Example 17, 3-tert-Butyl-4-[2-oxo-2-[2-(1,4,6,7-tetrahydrotriazolo[4,5-c]pyridine-5-carbonyl)-4,5,7,8-tetrahydropyrazolo[1,5-d][1,4]diazepin-6-yl]ethoxy]benzonitrile] — 1.7-fold higher, 10 nM
- O=C(OCc1ccc(C2CC2)cc1)N1CCc2cc(C(=O)N3CCc4[nH]nnc4C3)nn2CC1 [Example 34, 4-cyclopropylbenzyl 2-(4,5,6,7-tetrahydro-1H-[1,2,3]triazolo[4,5-c]pyridine-5-carbonyl)-7,8-dihydro-4H-pyrazolo[1,5-d][1,4]diazepine-6(5H)-carboxylate] — within 1.5-fold, 7 nM
- O=C(/C=C/c1ccc(OC(F)F)c(F)c1)N1CCc2cc(C(=O)N3CCc4[nH]nnc4C3)nn2CC1 [Example 25, (E)-3-[4-(difluoromethoxy)-3-fluorophenyl]-1-[2-(1,4,6,7-tetrahydrotriazolo[4,5-c]pyridine-5-carbonyl)-4,5,7,8-tetrahydropyrazolo[1,5-d][1,4]diazepin-6-yl]prop-2-en-1-one] — within 1.5-fold, 7 nM
- O=C(CCc1ccc(OC(F)(F)F)c(F)c1)N1CCc2cc(C(=O)N3CCc4[nH]nnc4C3)nn2CC1 [Example 18, 3-[3-fluoro-4-(trifluoromethoxy)phenyl]-1-[2-(1,4,6,7-tetrahydrotriazolo[4,5-c]pyridine-5-carbonyl)-4,5,7,8-tetrahydropyrazolo[1,5-d][1,4]diazepin-6-yl]propan-1-one] — 2.2-fold higher, 13 nM
- O=C(CCc1ccc(OC(F)(F)F)c(Cl)c1)N1CCc2cc(C(=O)N3CCc4[nH]nnc4C3)nn2CC1 [Example 22, 3-[3-chloro-4-(trifluoromethoxy)phenyl]-1-[2-(1,4,6,7-tetrahydrotriazolo[4,5-c]pyridine-5-carbonyl)-4,5,7,8-tetrahydropyrazolo[1,5-d][1,4]diazepin-6-yl]propan-1-one] — 3-fold higher, 18 nM
- COc1ccc(CCC(=O)N2CCc3cc(C(=O)N4CCc5[nH]nnc5C4)nn3CC2)cc1 [Example 19, 3-(4-methoxyphenyl)-1-[2-(1,4,6,7-tetrahydrotriazolo[4,5-c]pyridine-5-carbonyl)-4,5,7,8-tetrahydropyrazolo[1,5-d][1,4]diazepin-6-yl]propan-1-one] — 25-fold higher, 151 nM
- O=C(c1cc(OCC2CCOCC2)nc(C2CC2)c1)N1CCc2cc(C(=O)N3CCc4[nH]nnc4C3)nn2CC1 [Example 24, (6-(2-cyclopropyl-6-((tetrahydro-2H-pyran-4-yl)methoxy)isonicotinoyl)-5,6,7,8-tetrahydro-4H-pyrazolo[1,5-d][1,4]diazepin-2-yl)(6,7-dihydro-1H-[1,2,3]triazolo[4,5-c]pyridin-5(4H)-yl)methanone] — 1.5-fold higher, 9 nM
- O=C(OCc1ccc(OC(F)(F)F)cc1)N1CCc2cc(C(=O)N3CCc4[nH]nnc4C3)nn2CC1 [Example 5, [4-(Trifluoromethoxy)phenyl]methyl 2-(1,4,6,7-tetrahydrotriazolo[4,5-c]pyridine-5-carbonyl)-4,5,7,8-tetrahydropyrazolo[1,5-d][1,4]diazepine-6-carboxylate] — 3-fold lower, 2 nM
- Cc1cc(OC(F)(F)F)ccc1COC(=O)N1CCc2cc(C(=O)N3CCc4[nH]nnc4C3)nn2CC1 [Example 39, 2-methyl-4-(trifluoromethoxy)benzyl 2-(4,5,6,7-tetrahydro-1H-[1,2,3]triazolo[4,5-c]pyridine-5-carbonyl)-7,8-dihydro-4H-pyrazolo[1,5-d][1,4]diazepine-6(5H)-carboxylate] — 2.3-fold higher, 14 nM
- O=C(OCc1ccc(OC(F)(F)F)c(F)c1)N1CCc2nc(C(=O)N3CCc4[nH]nnc4C3)nn2CC1 [Example 36, [3-fluoro-4-(trifluoromethoxy)phenyl]methyl 2-(1,4,6,7-tetrahydrotriazolo[4,5-c]pyridine-5-carbonyl)-5,6,8,9-tetrahydro-[1,2,4]triazolo[1,5-d][1,4]diazepine-7-carboxylate] — the same, 6 nM
- CC(C)c1cc(C#N)ccc1COC(=O)N1CCc2cc(C(=O)N3CCc4[nH]nnc4C3)nn2CC1 [Example 9, (4-Cyano-2-propan-2-ylphenyl)methyl 2-(1,4,6,7-tetrahydrotriazolo[4,5-c]pyridine-5-carbonyl)-4,5,7,8-tetrahydropyrazolo[1,5-d][1,4]diazepine-6-carboxylate] — the same, 6 nM
- O=C(OCc1ccc(OC(F)(F)F)c(F)c1)N1CCc2cc(C(=O)N3CCc4[nH]nnc4C3)nn2CC1 [Example 3, [3-Fluoro-4-(trifluoromethoxy)phenyl]methyl 2-(1,4,6,7-tetrahydrotriazolo[4,5-c]pyridine-5-carbonyl)-4,5,7,8-tetrahydropyrazolo[1,5-d][1,4]diazepine-6-carboxylate] — 3-fold higher, 18 nM
- N#Cc1ccc(COC(=O)N2CCc3cc(C(=O)N4CCc5[nH]nnc5C4)nn3CC2)cc1F [Example 7, 4-Cyano-3-fluorobenzyl 2-(4,5,6,7-tetrahydro-1H-[1,2,3]triazolo[4,5-c]pyridine-5-carbonyl)-7,8-dihydro-4H-pyrazolo[1,5-d][1,4]diazepine-6(5H)-carboxylate] — 12-fold higher, 70 nM
- COc1ccc(COC(=O)N2CCc3cc(C(=O)N4CCc5[nH]nnc5C4)nn3CC2)cc1 [Example 27, 4-methoxybenzyl 2-(4,5,6,7-tetrahydro-1H-[1,2,3]triazolo[4,5-c]pyridine-5-carbonyl)-7,8-dihydro-4H-pyrazolo[1,5-d][1,4]diazepine-6(5H)-carboxylate] — 8.7-fold higher, 52 nM
- COc1ccc(COC(=O)N2CCc3cc(C(=O)N4CCc5[nH]nnc5C4)nn3CC2)cc1F [Example 32, 3-fluoro-4-methoxybenzyl 2-(4,5,6,7-tetrahydro-1H-[1,2,3]triazolo[4,5-c]pyridine-5-carbonyl)-7,8-dihydro-4H-pyrazolo[1,5-d][1,4]diazepine-6(5H)-carboxylate] — 5-fold higher, 30 nM
- O=C(OCc1cccc(F)c1)N1CCc2cc(C(=O)N3CCc4[nH]nnc4C3)nn2CC1 [Example 29, 3-fluorobenzyl 2-(4,5,6,7-tetrahydro-1H-[1,2,3]triazolo[4,5-c]pyridine-5-carbonyl)-7,8-dihydro-4H-pyrazolo[1,5-d][1,4]diazepine-6(5H)-carboxylate] — 6.3-fold higher, 38 nM
- O=C(OCc1ccc(OCC(F)(F)F)cc1)N1CCc2cc(C(=O)N3CCc4[nH]nnc4C3)nn2CC1 [Example 40, 4-(2,2,2-trifluoroethoxy)benzyl 2-(4,5,6,7-tetrahydro-1H-[1,2,3]triazolo[4,5-c]pyridine-5-carbonyl)-7,8-dihydro-4H-pyrazolo[1,5-d][1,4]diazepine-6(5H)-carboxylate] — 2.8-fold higher, 17 nM
- N#Cc1ccc(OCC(=O)N2CCc3cc(C(=O)N4CCc5[nH]nnc5C4)nn3CC2)c(C2CC2)c1 [Example 15, 3-Cyclopropyl-4-(2-oxo-2-(2-(4,5,6,7-tetrahydro-1H-[1,2,3]triazolo[4,5-c]pyridine-5-carbonyl)-7,8-dihydro-4H-pyrazolo[1,5-d][1,4]diazepin-6(5H)-yl)ethoxy)benzonitrile] — 1.8-fold higher, 11 nM
- COc1ccc(COC(=O)N2CCc3cc(C(=O)N4CCc5[nH]nnc5C4)nn3CC2)c(C)c1 [Example 33, 4-methoxy-2-methylbenzyl 2-(4,5,6,7-tetrahydro-1H-[1,2,3]triazolo[4,5-c]pyridine-5-carbonyl)-7,8-dihydro-4H-pyrazolo[1,5-d][1,4]diazepine-6(5H)-carboxylate] — 16-fold higher, 94 nM
- O=C(CCc1ccc(OC(F)F)c(F)c1)N1CCc2cc(C(=O)N3CCc4[nH]nnc4C3)nn2CC1 [Example 26, 3-[4-(difluoromethoxy)-3-fluorophenyl]-1-[2-(1,4,6,7-tetrahydrotriazolo[4,5-c]pyridine-5-carbonyl)-4,5,7,8-tetrahydropyrazolo[1,5-d][1,4]diazepin-6-yl]propan-1-one] — 2.7-fold higher, 16 nM

From patent US10669285B2, “Condensed [1,4] diazepine compounds as autotaxin (ATX) and lysophosphatidic acid (LPA) production inhibitors” (Hoffmann-La Roche Inc., priority 2014, dated 2020)
